Source: the kinase profiling compilation of Christmann-Franck et al. (2016)
Where “and” joins values, the source holds several entries; their conditions need not be identical. Identical values can stand only once.

Columns and labels:
Test in all cases: radiometric filter-binding kinase assay, Kinase HotSpot
Settings in all cases: compound 0.5 µM; ATP 10 µM
AURKA (human) = AURKA (human) (UniProt O14965)
CAMK4 (human) = CAMK4 (human) (UniProt Q16566)
CAMKK2 (human) = CAMKK2 (human) (UniProt Q96RR4)
CDC42BPA (human) = CDC42BPA (human) (UniProt Q5VT25)
CDK2 CCNE1 (human) = CDK2 CCNE1 (human) (UniProt P24941+P24864)
CDK6 CCND3 (human) = CDK6 CCND3 (human) (UniProt P30281+Q00534)
CHEK1 (human) = CHEK1 (human) (UniProt O14757)
CLK1 (human) = CLK1 (human) (UniProt P49759)
CSNK2A1 (human) = CSNK2A1 (human) (UniProt P68400)
DCLK2 (human) = DCLK2 (human) (UniProt Q8N568)
DYRK1B (human) = DYRK1B (human) (UniProt Q9Y463)
EPHA1 (human) = EPHA1 (human) (UniProt P21709)
EPHA3 (human) = EPHA3 (human) (UniProt P29320)
FGFR3 (human) = FGFR3 (human) (UniProt P22607)
FLT1 (human) = FLT1 (human) (UniProt P17948)
FYN (human) = FYN (human) (UniProt P06241)
GRK4 (human) = GRK4 (human) (UniProt P32298)
GRK7 (human) = GRK7 (human) (UniProt Q8WTQ7)
HCK (human) = HCK (human) (UniProt P08631)
LYN (human) = LYN (human) (UniProt P07948)
MAP3K3 (human) = MAP3K3 (human) (UniProt Q99759)
MAPK3 (human) = MAPK3 (human) (UniProt P27361)
MAPK8 (human) = MAPK8 (human) (UniProt P45983)
MAPKAPK5 (human) = MAPKAPK5 (human) (UniProt Q8IW41)
MARK2 (human) = MARK2 (human) (UniProt Q7KZI7)
MET (human) = MET (human) (UniProt P08581)
NEK1 (human) = NEK1 (human) (UniProt Q96PY6)
NEK11 (human) = NEK11 (human) (UniProt Q8NG66)
NTRK3 (human) = NTRK3 (human) (UniProt Q16288)
PAK3 (human) = PAK3 (human) (UniProt O75914)
PBK (human) = PBK (human) (UniProt Q96KB5)
PLK1 (human) = PLK1 (human) (UniProt P53350)
PRKCA (human) = PRKCA (human) (UniProt P17252)
PRKCB2 (human) = PRKCB2 (human) (UniProt P05771)
PRKCH (human) = PRKCH (human) (UniProt P24723)
PRKCZ (human) = PRKCZ (human) (UniProt Q05513)
PTK2B (human) = PTK2B (human) (UniProt Q14289)
RPS6KA4 KD2 (human) = RPS6KA4 KD2 (human) (UniProt O75676)
SIK2 (human) = SIK2 (human) (UniProt Q9H0K1)
TBK1 (human) = TBK1 (human) (UniProt Q9UHD2)
WNK2 (human) = WNK2 (human) (UniProt Q9Y3S1)
YES1 (human) = YES1 (human) (UniProt P07947)

PBK (human), sequence (Q96KB5 whole entry, looked up): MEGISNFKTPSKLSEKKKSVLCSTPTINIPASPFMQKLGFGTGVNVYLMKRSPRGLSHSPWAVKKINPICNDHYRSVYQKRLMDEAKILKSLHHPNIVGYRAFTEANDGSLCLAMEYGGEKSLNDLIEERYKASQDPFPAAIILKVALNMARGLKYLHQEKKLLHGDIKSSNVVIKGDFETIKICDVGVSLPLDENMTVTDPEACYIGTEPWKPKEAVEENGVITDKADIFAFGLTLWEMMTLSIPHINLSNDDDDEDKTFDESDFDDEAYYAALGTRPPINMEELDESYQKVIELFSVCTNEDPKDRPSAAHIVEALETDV
RPS6KA4 KD2 (human), sequence (O75676 whole entry, looked up): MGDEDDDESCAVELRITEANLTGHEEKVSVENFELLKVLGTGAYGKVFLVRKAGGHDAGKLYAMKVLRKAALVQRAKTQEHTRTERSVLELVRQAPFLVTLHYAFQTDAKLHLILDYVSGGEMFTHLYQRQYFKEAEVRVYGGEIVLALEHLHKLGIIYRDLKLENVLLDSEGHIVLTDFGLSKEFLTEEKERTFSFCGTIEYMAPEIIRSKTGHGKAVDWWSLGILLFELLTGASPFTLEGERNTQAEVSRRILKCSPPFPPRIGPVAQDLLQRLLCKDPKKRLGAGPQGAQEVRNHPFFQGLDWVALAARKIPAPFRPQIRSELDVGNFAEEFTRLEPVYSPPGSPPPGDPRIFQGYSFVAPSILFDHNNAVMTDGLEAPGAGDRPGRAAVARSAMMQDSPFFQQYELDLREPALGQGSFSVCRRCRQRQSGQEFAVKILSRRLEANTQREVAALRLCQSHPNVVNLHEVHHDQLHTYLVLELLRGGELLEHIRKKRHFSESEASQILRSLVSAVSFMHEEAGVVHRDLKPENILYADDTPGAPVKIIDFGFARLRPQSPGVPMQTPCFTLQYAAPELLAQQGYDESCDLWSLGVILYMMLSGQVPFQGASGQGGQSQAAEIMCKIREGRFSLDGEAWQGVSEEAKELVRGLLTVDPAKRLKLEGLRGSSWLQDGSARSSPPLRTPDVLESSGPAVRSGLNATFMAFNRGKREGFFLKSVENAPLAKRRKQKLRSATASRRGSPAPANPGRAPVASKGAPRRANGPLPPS
DCLK2 (human), sequence (Q8N568 whole entry, looked up): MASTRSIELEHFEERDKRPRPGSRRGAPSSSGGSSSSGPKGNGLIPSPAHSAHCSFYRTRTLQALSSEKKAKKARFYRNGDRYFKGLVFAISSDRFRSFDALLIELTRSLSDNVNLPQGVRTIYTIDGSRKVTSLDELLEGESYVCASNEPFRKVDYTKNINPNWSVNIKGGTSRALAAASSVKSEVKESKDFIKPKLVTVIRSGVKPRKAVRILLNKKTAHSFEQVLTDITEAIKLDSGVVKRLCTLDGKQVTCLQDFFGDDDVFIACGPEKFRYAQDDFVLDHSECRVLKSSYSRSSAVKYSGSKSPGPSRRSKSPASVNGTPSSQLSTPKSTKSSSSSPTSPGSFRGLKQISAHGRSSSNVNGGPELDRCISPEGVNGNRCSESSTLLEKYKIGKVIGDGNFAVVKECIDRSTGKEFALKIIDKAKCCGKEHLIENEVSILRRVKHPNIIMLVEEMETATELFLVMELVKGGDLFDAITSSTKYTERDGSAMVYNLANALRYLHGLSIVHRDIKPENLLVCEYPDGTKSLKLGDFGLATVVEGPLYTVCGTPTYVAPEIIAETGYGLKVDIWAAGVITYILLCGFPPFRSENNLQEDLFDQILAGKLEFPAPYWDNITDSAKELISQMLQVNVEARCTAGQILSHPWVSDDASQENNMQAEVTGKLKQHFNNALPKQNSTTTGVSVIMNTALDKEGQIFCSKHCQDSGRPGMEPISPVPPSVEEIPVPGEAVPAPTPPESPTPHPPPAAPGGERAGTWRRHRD
CAMK4 (human), sequence (Q16566 whole entry, looked up): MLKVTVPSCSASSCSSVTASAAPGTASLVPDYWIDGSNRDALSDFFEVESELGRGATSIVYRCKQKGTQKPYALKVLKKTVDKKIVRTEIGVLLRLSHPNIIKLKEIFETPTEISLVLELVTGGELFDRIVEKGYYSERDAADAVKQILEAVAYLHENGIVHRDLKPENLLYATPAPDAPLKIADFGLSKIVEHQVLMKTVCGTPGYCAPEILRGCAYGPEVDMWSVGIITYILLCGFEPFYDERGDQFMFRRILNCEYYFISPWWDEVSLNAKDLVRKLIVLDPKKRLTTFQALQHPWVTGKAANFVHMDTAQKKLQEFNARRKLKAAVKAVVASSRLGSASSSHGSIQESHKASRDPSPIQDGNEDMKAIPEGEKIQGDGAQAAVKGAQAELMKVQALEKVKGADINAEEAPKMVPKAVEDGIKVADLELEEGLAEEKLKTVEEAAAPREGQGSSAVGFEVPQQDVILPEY
PAK3 (human), sequence (O75914 whole entry, looked up): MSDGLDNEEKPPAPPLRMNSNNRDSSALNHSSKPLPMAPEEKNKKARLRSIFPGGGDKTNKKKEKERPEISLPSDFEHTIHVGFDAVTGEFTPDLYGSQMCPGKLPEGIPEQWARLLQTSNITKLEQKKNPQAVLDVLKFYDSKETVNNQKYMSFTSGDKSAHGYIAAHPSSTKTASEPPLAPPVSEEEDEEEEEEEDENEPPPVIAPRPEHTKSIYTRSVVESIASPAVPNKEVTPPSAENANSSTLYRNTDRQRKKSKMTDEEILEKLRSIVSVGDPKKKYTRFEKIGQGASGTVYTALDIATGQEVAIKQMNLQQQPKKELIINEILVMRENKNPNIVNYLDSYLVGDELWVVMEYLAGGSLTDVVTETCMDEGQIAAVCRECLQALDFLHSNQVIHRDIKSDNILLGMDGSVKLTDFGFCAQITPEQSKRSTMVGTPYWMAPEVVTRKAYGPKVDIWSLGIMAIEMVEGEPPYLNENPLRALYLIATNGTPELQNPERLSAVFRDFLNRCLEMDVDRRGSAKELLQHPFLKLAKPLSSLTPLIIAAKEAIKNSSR
GRK4 (human), sequence (P32298 whole entry, looked up): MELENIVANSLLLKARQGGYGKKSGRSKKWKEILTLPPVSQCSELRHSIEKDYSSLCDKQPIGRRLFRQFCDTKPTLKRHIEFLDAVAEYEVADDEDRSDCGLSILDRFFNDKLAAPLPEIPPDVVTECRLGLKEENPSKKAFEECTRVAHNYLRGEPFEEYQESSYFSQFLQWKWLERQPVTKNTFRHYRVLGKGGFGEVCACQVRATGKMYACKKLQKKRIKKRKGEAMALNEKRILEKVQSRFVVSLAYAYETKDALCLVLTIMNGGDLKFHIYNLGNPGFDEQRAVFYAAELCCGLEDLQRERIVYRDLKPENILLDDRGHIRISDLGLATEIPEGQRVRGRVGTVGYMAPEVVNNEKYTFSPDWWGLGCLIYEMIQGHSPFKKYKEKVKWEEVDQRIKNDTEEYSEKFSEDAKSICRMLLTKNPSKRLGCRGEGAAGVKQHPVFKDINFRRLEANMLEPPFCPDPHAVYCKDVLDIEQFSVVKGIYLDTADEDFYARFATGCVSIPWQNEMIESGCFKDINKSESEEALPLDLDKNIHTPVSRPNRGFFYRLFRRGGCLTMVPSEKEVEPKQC
CDK2 CCNE1 (human), sequence (P24864 whole entry, looked up, other chains not shown): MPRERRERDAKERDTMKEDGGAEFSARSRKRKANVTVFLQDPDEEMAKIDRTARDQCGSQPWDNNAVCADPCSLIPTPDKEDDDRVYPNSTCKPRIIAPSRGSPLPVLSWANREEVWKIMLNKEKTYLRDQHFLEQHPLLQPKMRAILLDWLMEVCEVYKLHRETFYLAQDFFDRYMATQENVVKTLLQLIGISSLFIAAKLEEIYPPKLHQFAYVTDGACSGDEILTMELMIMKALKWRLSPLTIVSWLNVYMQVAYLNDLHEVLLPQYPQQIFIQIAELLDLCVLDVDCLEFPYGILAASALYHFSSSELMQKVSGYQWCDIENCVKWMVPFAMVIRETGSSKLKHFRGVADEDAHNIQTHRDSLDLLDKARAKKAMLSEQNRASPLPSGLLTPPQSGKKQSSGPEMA
PRKCH (human), sequence (P24723 whole entry, looked up): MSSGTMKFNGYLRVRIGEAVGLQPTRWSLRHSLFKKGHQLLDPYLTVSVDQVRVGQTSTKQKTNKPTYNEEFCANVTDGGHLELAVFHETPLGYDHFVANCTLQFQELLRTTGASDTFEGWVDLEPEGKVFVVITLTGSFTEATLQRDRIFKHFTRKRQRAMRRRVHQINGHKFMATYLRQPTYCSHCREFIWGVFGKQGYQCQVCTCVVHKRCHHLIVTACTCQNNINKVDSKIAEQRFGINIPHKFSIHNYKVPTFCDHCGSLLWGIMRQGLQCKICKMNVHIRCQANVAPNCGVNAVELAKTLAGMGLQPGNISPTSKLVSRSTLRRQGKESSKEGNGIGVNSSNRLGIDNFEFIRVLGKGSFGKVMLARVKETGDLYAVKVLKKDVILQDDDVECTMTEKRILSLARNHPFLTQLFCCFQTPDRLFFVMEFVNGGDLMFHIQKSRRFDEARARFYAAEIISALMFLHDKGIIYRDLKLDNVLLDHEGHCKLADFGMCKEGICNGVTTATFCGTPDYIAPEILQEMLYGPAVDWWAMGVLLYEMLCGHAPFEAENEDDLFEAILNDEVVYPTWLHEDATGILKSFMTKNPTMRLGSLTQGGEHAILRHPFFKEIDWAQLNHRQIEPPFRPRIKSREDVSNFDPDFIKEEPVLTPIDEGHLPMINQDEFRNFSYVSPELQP
MAPK3 (human), sequence (P27361 whole entry, looked up): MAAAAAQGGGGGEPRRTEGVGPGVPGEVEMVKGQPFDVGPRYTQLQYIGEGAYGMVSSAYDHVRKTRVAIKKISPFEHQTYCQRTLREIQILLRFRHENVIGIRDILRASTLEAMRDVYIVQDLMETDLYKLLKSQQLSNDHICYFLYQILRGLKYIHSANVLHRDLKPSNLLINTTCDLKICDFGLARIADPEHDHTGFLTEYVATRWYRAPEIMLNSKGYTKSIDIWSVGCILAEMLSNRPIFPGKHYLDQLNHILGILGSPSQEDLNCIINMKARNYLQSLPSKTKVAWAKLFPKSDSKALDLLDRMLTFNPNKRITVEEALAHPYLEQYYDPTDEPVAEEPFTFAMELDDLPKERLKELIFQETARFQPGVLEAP

O=C1Nc2ccccc2/C1=C1/Nc2ccccc2/C1=N\OCCC(O)CO (stereo unspecified)
residual activity (AURKA (human)): 9.78% | residual activity (CAMK4 (human)): 93.6% | residual activity (CAMKK2 (human)): 26% | residual activity (CDC42BPA (human)): 88.6% | residual activity (CDK2 CCNE1 (human)): 23.1% | residual activity (CDK6 CCND3 (human)): 10.2% | residual activity (CHEK1 (human)): 67% | residual activity (CLK1 (human)): 36.6% | residual activity (CSNK2A1 (human)): 57.6% | residual activity (DCLK2 (human)): 86.4% | residual activity (DYRK1B (human)): 65.1% | residual activity (EPHA1 (human)): 82.2% | residual activity (EPHA3 (human)): 69% | residual activity (FGFR3 (human)): 45.8% | residual activity (FLT1 (human)): 51% | residual activity (FYN (human)): 13% | residual activity (GRK4 (human)): 74.7% | residual activity (GRK7 (human)): 70.3% | residual activity (HCK (human)): 23% | residual activity (LYN (human)): 25.4% and 45.5% | residual activity (MAP3K3 (human)): 87.8% | residual activity (MAPK3 (human)): 98.7% | residual activity (MAPK8 (human)): 101% | residual activity (MAPKAPK5 (human)): 86.8% | residual activity (MARK2 (human)): 57.4% | residual activity (MET (human)): 123% | residual activity (NEK1 (human)): 92.9% | residual activity (NEK11 (human)): 92.3% | residual activity (NTRK3 (human)): 1.01% | residual activity (PAK3 (human)): 73.8% | residual activity (PBK (human)): 80.6% | residual activity (PLK1 (human)): 103% | residual activity (PRKCA (human)): 101% | residual activity (PRKCB2 (human)): 88% | residual activity (PRKCH (human)): 82.2% | residual activity (PRKCZ (human)): 98.5% | residual activity (PTK2B (human)): 30.5% | residual activity (RPS6KA4 KD2 (human)): 21.7% | residual activity (SIK2 (human)): 75.1% | residual activity (TBK1 (human)): 29.9% | residual activity (WNK2 (human)): 85.4% | residual activity (YES1 (human)): 13.4%

Oc1ccc(Nc2nc(-c3ccc(Cl)cc3)cs2)cc1
residual activity (AURKA (human)): 89.4% | residual activity (CAMK4 (human)): 99.7% | residual activity (CAMKK2 (human)): 101% | residual activity (CDC42BPA (human)): 87.1% | residual activity (CDK2 CCNE1 (human)): 91.9% | residual activity (CDK6 CCND3 (human)): 109% | residual activity (CHEK1 (human)): 99.4% | residual activity (CLK1 (human)): 104% | residual activity (CSNK2A1 (human)): 101% | residual activity (DCLK2 (human)): 98.5% | residual activity (DYRK1B (human)): 106% | residual activity (EPHA1 (human)): 92.6% | residual activity (EPHA3 (human)): 110% | residual activity (FGFR3 (human)): 96.5% | residual activity (FLT1 (human)): 82.3% | residual activity (FYN (human)): 102% | residual activity (GRK4 (human)): 90.5% | residual activity (GRK7 (human)): 109% | residual activity (HCK (human)): 96.1% | residual activity (LYN (human)): 100% | residual activity (MAP3K3 (human)): 101% | residual activity (MAPK3 (human)): 103% | residual activity (MAPK8 (human)): 100% | residual activity (MAPKAPK5 (human)): 96.8% | residual activity (MARK2 (human)): 102% | residual activity (MET (human)): 99.4% | residual activity (NEK1 (human)): 104% | residual activity (NEK11 (human)): 77.1% | residual activity (NTRK3 (human)): 102% | residual activity (PAK3 (human)): 124% | residual activity (PBK (human)): 100% | residual activity (PLK1 (human)): 106% | residual activity (PRKCA (human)): 113% | residual activity (PRKCB2 (human)): 94.7% | residual activity (PRKCH (human)): 96.3% | residual activity (PRKCZ (human)): 105% | residual activity (PTK2B (human)): 100% | residual activity (RPS6KA4 KD2 (human)): 91.5% | residual activity (SIK2 (human)): 90.7% | residual activity (TBK1 (human)): 95.2% | residual activity (WNK2 (human)): 101% | residual activity (YES1 (human)): 99.2%

Cn1cnc2cc3c(Nc4cccc(Br)c4)ncnc3cc21
residual activity (AURKA (human)): 87.8% | residual activity (CAMK4 (human)): 98.6% | residual activity (CAMKK2 (human)): 99.6% | residual activity (CDC42BPA (human)): 93.2% | residual activity (CDK2 CCNE1 (human)): 78.2% | residual activity (CDK6 CCND3 (human)): 107% | residual activity (CHEK1 (human)): 113% | residual activity (CLK1 (human)): 102% | residual activity (CSNK2A1 (human)): 99% | residual activity (DCLK2 (human)): 92.9% | residual activity (DYRK1B (human)): 98.1% | residual activity (EPHA1 (human)): 84.4% | residual activity (EPHA3 (human)): 82.9% | residual activity (FGFR3 (human)): 98.6% | residual activity (FLT1 (human)): 77.4% | residual activity (FYN (human)): 85.9% | residual activity (GRK4 (human)): 99.5% | residual activity (GRK7 (human)): 106% | residual activity (HCK (human)): 70.4% | residual activity (LYN (human)): 52.4% and 75.8% | residual activity (MAP3K3 (human)): 109% | residual activity (MAPK3 (human)): 109% | residual activity (MAPK8 (human)): 96.9% | residual activity (MAPKAPK5 (human)): 130% | residual activity (MARK2 (human)): 96.6% | residual activity (MET (human)): 101% | residual activity (NEK1 (human)): 97.9% | residual activity (NEK11 (human)): 101% | residual activity (NTRK3 (human)): 81.4% | residual activity (PAK3 (human)): 98.5% | residual activity (PBK (human)): 102% | residual activity (PLK1 (human)): 97.6% | residual activity (PRKCA (human)): 79% | residual activity (PRKCB2 (human)): 95.4% | residual activity (PRKCH (human)): 81.2% | residual activity (PRKCZ (human)): 102% | residual activity (PTK2B (human)): 92.7% | residual activity (RPS6KA4 KD2 (human)): 96.3% | residual activity (SIK2 (human)): 101% | residual activity (TBK1 (human)): 87.7% | residual activity (WNK2 (human)): 89.7% | residual activity (YES1 (human)): 45.7%
